Values quoted from earlier work as cited in patent US11661525B2, “Inkjet ink and inkjet recording apparatus” (KYOCERA Document Solutions Inc., priority 2020, dated 2023).
Read-outs that look alike come from different tables or passages of the source.

[1] = literature values of the octanol/water partition coefficient of representative water-soluble organic solvents

LogP [1]	LogP (octanol/water partition coefficient of the water-soluble organic solvent used in the inks (Tables 6 and 8))	SMILES
0.66	–	CCCCCCC(O)CO (centres unmarked) [1,2-Octanediol]
0.07	0.01	CC(CCO)CCO [3-Methyl-1,5-pentanediol]
−0.15	–	CCOCCOCCO [Diethylene glycol monoethyl ether]
−1.98	–	OCCOCCOCCO [Triethylene glycol]
